Assays:
A. viscuosus = test: Minimum inhibitory concentration test: optical density at 610 nm of A. viscuosus in tryptic soy broth, 96 well plate; assay type: cell-based; conditions: 37° C. for 18 hours
Experimental: Stock solutions of the zinc ascorbyl phosphate of Example 1, ascorbyl phosphate, zinc oxide, and the zinc-lysine complex were each prepared in water. The concentration of active ingredient in each solution was 0.1 M. Aliquots of each test solution (200 μL) were placed in the first row of a 96 well plate. Serial dilutions of the stock solutions were prepared on the plate by mixing the stock solutions with tryptic soy broth on a 1:1 basis. The concentrations of active ingredient prepared on this basis varied from 50 mM to 0.00488 mM.
A solution of A. viscuosus with an optical density of 0.2 at 610 nm was prepared. Aliquots of the A. viscuosus solution (100 μL) were then added to each test well. Four control wells containing TSB buffer and A. viscuosus solution were prepared. Four blank wells containing TSB buffer alone were also prepared.
The plate was then incubated at 37° C. for 18 hours. The optical density of each well at 610 nm was then recorded using a plate reader.

[1] = cited from earlier work
[2] = 50 mM active ingredient, lower reading = improved antibacterial effect

Compound | optical density reading (A. viscuosus; 0.005 mM active ingredient) | optical density reading (A. viscuosus; 0.00977 mM active ingredient) | optical density reading (A. viscuosus; 0.195 mM active ingredient) | optical density reading (A. viscuosus; 0.391 mM active ingredient) | optical density reading (A. viscuosus; 0.781 mM active ingredient) | optical density reading (A. viscuosus; 1.563 mM active ingredient) | optical density reading (A. viscuosus; 3.125 mM active ingredient) | optical density reading (A. viscuosus; 6.25 mM active ingredient) | optical density reading (A. viscuosus; 12.5 mM active ingredient) | optical density reading (A. viscuosus; 25 mM active ingredient) | optical density reading (A. viscuosus; [2]) | solubility under aqueous conditions [1]
CCCCCCCCCCCCCCCC(=O)OC[C@H](O)[C@H]1OC(=O)C(O)=C1O [Ascorbyl Palmitate] | 0.70 | 0.71 | 0.71 | 0.69 | 0.70 | 0.70 | 0.68 | 0.69 | 0.72 | 0.68 | 0.64 | 
[O]=[Zn] [Zinc Oxide, zinc oxide] | 0.68 | 0.68 | 0.67 | 0.66 | 0.60 | 0.45 | 0.33 | 0.29 | 0.40 | 0.65 | 1.55 | poorly soluble
zinc-lysine complex | 0.68 | 0.71 | 0.69 | 0.65 | 0.58 | 0.44 | 0.34 | 0.15 | 0.20 | 0.35 | 0.56 | 
